We go through one compound from patent US20170079970A1, “TETRAHYDROQUINOLINE DERIVATIVES AND THEIR USE AS EPAC1 INHIBITORS FOR THE TREATMENT OF MYOCARDIAL INFARCTION INJURY” (INSERM (INSTITUT NATIONAL DE LA SANTÉ ET DE LA RECHERCHE …, priority 2014, published 2017).

This assay concerns Isolated mouse adult cardiomyocytes. The assay is described as follows: Hypoxia and hypoxia-reoxygenation induced cardiomyocyte death, LDH release. The format is cell-based. The note with it: pretreated with 10 μM. As for the experimental part: FIG. 4. A pharmacological inhibitor of Epac1, R-CE3F4 prevents hypoxia and hypoxia-reoxygenation induced cardiomyocyte death. Isolated mouse adult cardiomyocytes, pretreated or not with either 10 μM R-CE3F4 or its analogue ΔCHO (10 μM) were exposed to hypoxia (HX) for 4 h followed by a 2 h of reoxygenation period (HX+R). Cell death was determined by LDH release. Results are expressed as means±S.E.M. The bar graph represents the average of 5 independent experiments performed in triplicate. Statistical significance was determined by 2-way ANOVA. * P<0.05 compared with indicated values.
Myocardial infarction was induced in wild-type (WT) versus Epac1^−/− littermates by left anterior descending coronary artery (LAD) ligation for 24 h. Ischemia/Reperfusion was induced by the left anterior descending coronary artery occlusion for 45 min and followed by 24 h of reperfusion. The area at risk (AAR) and infarct size were evaluated by Evans blue and TTC staining, respectively. […] Isolated mouse adult cardiomyocytes pretreated with either R-CE3F4 or (ΔCHO) were exposed to hypoxia (HX) for 4 h followed by a 2 h of reoxygenation period (HX+R). Cell death was determined by LDH release.
Background: LDH in the medium is a marker of cell lysis.

With `C[C@@H]1CCc2c(cc(Br)c(F)c2Br)N1C=O` [R-CE3F4], the “HX+R-induced cardiomyocyte death (LDH release)” value (hypoxia 4 h followed by 2 h reoxygenation (HX+R)) is listed as “significantly prevented”. Also, the “HX-induced cardiomyocyte death (LDH release)” value (hypoxia (HX) for 4 h) was “significantly prevented”.
